Active and inactive are the calls of the source. No cut-off for these calls is given here.
Tests used:
[1] = tested on: DU-145; experiment: Antiproliferative activity against human DU-145 cells assessed as inhibition of cell growth incubated for 72 hrs by celltiter-glo assay; format: functional, cell-based; details: DU-145, 72 h
[2] = Inhibition of recombinant PDGFR (unknown origin); set-up: species or system Homo sapiens
[3] = molecular target: Maternal embryonic leucine zipper kinase (Homo sapiens, UniProt Q14680); experiment: Inhibition of recombinant MELK (unknown origin) preincubated for 60 mins
[4] = tested on: NCI-H522; experiment: Antiproliferative activity against human NCI-H522 cells assessed as inhibition of cell growth incubated for 72 hrs by celltiter-glo assay; format: functional, cell-based; details: NCI-H522, 72 h
[5] = tested on: A-375; experiment: Antiproliferative activity against human A-375 cells assessed as inhibition of cell growth incubated for 72 hrs by celltiter-glo assay; format: functional, cell-based; details: A-375, 72 h
[6] = tested on: OVCAR-8; experiment: Antiproliferative activity against human OVCAR-8 cells assessed as inhibition of cell growth incubated for 72 hrs by celltiter-glo assay; format: functional, cell-based; details: OVCAR-8, 72 h
[7] = AUC in Athymic nu-nu mouse at 100 mg/kg, po measured upto 24 hrs by LC-MS/MS analysis; format: ADME, organism-based; details: in vivo
[8] = molecular target: Dual specificity protein kinase TTK (Homo sapiens) (UniProt P33981)
Description: Binding affinity to recombinant human MPS1 assessed as half life

[9] = molecular target: Serine/threonine-protein kinase 26 (Homo sapiens, UniProt Q9P289); experiment: Inhibition of recombinant MST4 (unknown origin)
[10] = molecular target: CDC7/DBF4 (Cell division cycle 7-related protein kinase/Activator of S phase kinase) (Homo sapiens, UniProt O00311); experiment: Inhibition of recombinant CDC7/DBF4 (unknown origin); format: protein-complex assay
[11] = tested on: HT1197; experiment: Antiproliferative activity against human HT1197 cells assessed as inhibition of cell growth incubated for 72 hrs by celltiter-glo assay; format: functional, cell-based; details: HT1197, 72 h
[12] = tested on: HCT-116; experiment: Antiproliferative activity against human HCT-116 cells assessed as inhibition of cell growth incubated for 72 hrs by celltiter-glo assay; format: functional, cell-based; details: HCT-116, 72 h
[13] = tested on: SF-268; experiment: Antiproliferative activity against human SF-268 cells assessed as inhibition of cell growth incubated for 72 hrs by celltiter-glo assay; format: functional, cell-based; details: SF-268, 72 h
[14] = tested on: SW948; experiment: Antiproliferative activity against human SW948 cells assessed as inhibition of cell growth incubated for 72 hrs by celltiter-glo assay; format: functional, cell-based; details: SW948, 72 h
[15] = tested on: MOLM-13; experiment: Antiproliferative activity against human MOLM-13 cells assessed as inhibition of cell growth incubated for 72 hrs by celltiter-glo assay; format: functional, cell-based; details: MOLM-13, 72 h
[16] = Cmax in Athymic nu-nu mouse at 10 mg/kg, po measured upto 24 hrs by LC-MS/MS analysis; format: ADME, organism-based; details: in vivo
[17] = molecular target: Protein kinase C beta type (Homo sapiens, UniProt P05771); experiment: Inhibition of recombinant PKCbeta (unknown origin)
[18] = molecular target: Cyclin-dependent kinase 4/cyclin D1 (Homo sapiens, UniProt P11802); experiment: Inhibition of recombinant CDK4/CYCD1 (unknown origin); format: protein-complex assay
[19] = molecular target: Serine/threonine-protein kinase PLK1 (Homo sapiens, UniProt P53350); experiment: Inhibition of recombinant PLK1 (unknown origin)
[20] = tested on: HCT-116; experiment: Induction of apoptosis in human HCT-116 cells at 1 micromol/L incubated for 24 to 72 hrs by FACS/PI staining based flow cytometric analysis; format: functional; details: dose 1 µmol/L; time 24-72 hrs; at 1 µM
[21] = Antiproliferative activity against human RPMI 8226/ADR cells assessed as inhibition of cell growth incubated for 72 hrs by celltiter-glo assay; format: functional, cell-based
[22] = tested on: SF-295; experiment: Antiproliferative activity against human SF-295 cells assessed as inhibition of cell growth incubated for 72 hrs by celltiter-glo assay; format: functional, cell-based; details: SF-295, 72 h
[23] = tested on: A2780; experiment: Cell cycle arrest in human A2780 cells assessed as accumulation of cells at G1 phase at 0.2 to 1 micromol/L incubated for 24 hrs by FACS/PI staining based flow cytometric analysis; format: functional; details: dose 0.2-1 µmol/L
[24] = AUC in Athymic nu-nu mouse at 10 mg/kg, po measured upto 24 hrs by LC-MS/MS analysis; format: ADME, organism-based; details: in vivo
[25] = tested on: UACC-257; experiment: Antiproliferative activity against human UACC-257 cells assessed as inhibition of cell growth incubated for 72 hrs by celltiter-glo assay; format: functional, cell-based; details: UACC-257, 72 h
[26] = tested on: HeLa; experiment: Induction of mitotic arrest in human nocodazole-arrested HeLa cells assessed as delocalization of borealin at 1 micromol/L in presence of MG132; format: functional, cell-based; details: dose 1.0 µmol/L
[27] = tested on: A-431; experiment: Antiproliferative activity against human A-431 cells assessed as inhibition of cell growth incubated for 72 hrs by celltiter-glo assay; format: functional, cell-based; details: A-431, 72 h
[28] = tested on: T47D; experiment: Antiproliferative activity against human T47D cells assessed as inhibition of cell growth incubated for 72 hrs by celltiter-glo assay; format: functional, cell-based
[29] = molecular target: Eukaryotic elongation factor 2 kinase (Homo sapiens, UniProt O00418); experiment: Inhibition of recombinant EEF2K (unknown origin)
[30] = Volume of distribution at steady state in Athymic nu-nu mouse at 10 mg/kg, iv measured upto 24 hrs by LC-MS/MS analysis; format: ADME, organism-based; details: in vivo, read-out: Vdss
[31] = Antiproliferative activity against human NPA cells assessed as inhibition of cell growth incubated for 72 hrs by celltiter-glo assay; format: functional, cell-based
[32] = tested on: U2OS; experiment: Induction of mitotic arrest in human U2OS cells expressing YFP-alpha-tubulin assessed as reduction in mitotic cells at 1 micromol/L by time-lapse microscopic analysis; format: functional, cell-based; details: dose 1.0 µmol/L
[33] = molecular target: Tyrosine-protein kinase ZAP-70 (Homo sapiens, UniProt P43403); experiment: Inhibition of recombinant ZAP70 (unknown origin)
[34] = AUC in Athymic nu-nu mouse at 10 mg/kg, iv measured upto 24 hrs by LC-MS/MS analysis; format: ADME, organism-based; details: in vivo
[35] = tested on: HCT-15; experiment: Antiproliferative activity against human HCT-15 cells assessed as inhibition of cell growth incubated for 72 hrs by celltiter-glo assay; format: functional, cell-based; details: HCT-15, 72 h
[36] = molecular target: RAC-alpha serine/threonine-protein kinase (Homo sapiens, UniProt P31749); experiment: Inhibition of recombinant AKT1 (unknown origin)
[37] = tested on: SW-620; experiment: Antiproliferative activity against human SW620 cells assessed as inhibition of cell growth incubated for 72 hrs by celltiter-glo assay; format: functional, cell-based; details: SW-620, 72 h
[38] = tested on: HEL; experiment: Antiproliferative activity against human HEL cells assessed as inhibition of cell growth incubated for 72 hrs by celltiter-glo assay; format: functional, cell-based
[39] = tested on: COLO-741; experiment: Antiproliferative activity against human COLO-741 cells assessed as inhibition of cell growth incubated for 72 hrs by celltiter-glo assay; format: functional, cell-based; details: COLO-741, 72 h
[40] = tested on: HeLa; experiment: Inhibition of cdc20-MAD2 protein-protein interaction in human nocodazole arrested HeLa cells by Coimmunoprecipitation analysis; format: cell-based
[41] = Toxicity in Athymic nu-nu nude mouse xenografted with human A2780 cells assessed as body weight loss at 90 mg/kg, po administered once a day for 7 days; format: organism-based; details: in vivo, 168 h, time 7 day
[42] = tested on: CCRF-CEM; experiment: Antiproliferative activity against human CCRF-CEM cells assessed as inhibition of cell growth incubated for 72 hrs by celltiter-glo assay; format: functional, cell-based

Serine/threonine-protein kinase PLK1, sequence (P53350 whole entry): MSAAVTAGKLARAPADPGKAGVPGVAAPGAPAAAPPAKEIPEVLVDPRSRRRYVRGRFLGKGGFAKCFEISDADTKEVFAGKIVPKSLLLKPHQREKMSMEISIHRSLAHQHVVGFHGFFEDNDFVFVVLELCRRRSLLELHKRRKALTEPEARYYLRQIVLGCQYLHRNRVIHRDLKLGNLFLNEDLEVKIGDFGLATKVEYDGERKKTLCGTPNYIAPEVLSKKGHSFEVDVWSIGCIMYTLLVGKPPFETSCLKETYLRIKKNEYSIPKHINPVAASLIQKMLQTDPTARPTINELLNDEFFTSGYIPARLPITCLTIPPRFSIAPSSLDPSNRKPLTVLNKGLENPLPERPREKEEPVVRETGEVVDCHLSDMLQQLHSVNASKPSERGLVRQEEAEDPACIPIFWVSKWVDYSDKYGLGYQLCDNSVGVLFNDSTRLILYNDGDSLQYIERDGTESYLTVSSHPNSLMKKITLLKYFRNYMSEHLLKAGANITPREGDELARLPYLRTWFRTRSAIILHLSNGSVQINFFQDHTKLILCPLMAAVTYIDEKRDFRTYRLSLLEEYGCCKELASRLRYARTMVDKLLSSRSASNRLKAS
RAC-alpha serine/threonine-protein kinase, sequence (P31749 whole entry): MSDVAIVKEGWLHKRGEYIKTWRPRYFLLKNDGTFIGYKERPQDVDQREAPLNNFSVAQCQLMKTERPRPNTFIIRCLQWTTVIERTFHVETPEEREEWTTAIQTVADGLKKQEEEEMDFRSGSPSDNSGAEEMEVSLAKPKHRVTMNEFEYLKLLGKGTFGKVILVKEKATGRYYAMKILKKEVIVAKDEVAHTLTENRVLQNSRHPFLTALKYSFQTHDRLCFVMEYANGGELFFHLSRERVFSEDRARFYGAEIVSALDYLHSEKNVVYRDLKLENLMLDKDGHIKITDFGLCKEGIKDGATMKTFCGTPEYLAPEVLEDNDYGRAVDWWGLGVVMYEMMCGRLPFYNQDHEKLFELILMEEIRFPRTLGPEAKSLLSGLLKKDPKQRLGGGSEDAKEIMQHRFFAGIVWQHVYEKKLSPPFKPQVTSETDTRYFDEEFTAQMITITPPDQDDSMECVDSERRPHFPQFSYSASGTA
Maternal embryonic leucine zipper kinase, sequence (Q14680 whole entry): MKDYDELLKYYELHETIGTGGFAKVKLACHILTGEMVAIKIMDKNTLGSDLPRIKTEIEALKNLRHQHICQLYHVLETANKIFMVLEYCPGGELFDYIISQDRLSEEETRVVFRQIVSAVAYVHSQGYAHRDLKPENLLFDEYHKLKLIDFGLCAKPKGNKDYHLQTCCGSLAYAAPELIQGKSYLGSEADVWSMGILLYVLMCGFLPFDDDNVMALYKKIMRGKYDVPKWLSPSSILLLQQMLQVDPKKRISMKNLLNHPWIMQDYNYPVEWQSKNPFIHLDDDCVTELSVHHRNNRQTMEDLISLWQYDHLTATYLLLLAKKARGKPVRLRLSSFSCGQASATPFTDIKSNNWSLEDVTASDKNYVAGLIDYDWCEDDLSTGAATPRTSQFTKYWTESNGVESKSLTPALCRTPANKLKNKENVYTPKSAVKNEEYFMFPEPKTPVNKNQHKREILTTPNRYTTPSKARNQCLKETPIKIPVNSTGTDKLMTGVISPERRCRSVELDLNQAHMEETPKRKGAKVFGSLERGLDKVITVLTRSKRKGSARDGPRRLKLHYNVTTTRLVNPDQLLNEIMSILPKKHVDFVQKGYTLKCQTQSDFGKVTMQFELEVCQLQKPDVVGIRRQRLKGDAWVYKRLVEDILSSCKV
Serine/threonine-protein kinase 26, sequence (Q9P289 whole entry): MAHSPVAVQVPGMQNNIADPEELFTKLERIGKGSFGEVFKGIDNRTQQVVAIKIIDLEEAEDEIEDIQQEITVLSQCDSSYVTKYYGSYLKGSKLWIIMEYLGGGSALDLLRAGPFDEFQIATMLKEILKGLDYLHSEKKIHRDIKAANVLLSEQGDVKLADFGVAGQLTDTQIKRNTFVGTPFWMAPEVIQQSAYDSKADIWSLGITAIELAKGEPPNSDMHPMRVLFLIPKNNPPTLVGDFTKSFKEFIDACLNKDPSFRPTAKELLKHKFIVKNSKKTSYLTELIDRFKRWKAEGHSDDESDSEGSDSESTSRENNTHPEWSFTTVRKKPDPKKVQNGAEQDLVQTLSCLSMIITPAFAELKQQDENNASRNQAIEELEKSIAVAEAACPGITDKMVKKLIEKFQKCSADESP
Protein kinase C beta type, sequence (P05771 whole entry): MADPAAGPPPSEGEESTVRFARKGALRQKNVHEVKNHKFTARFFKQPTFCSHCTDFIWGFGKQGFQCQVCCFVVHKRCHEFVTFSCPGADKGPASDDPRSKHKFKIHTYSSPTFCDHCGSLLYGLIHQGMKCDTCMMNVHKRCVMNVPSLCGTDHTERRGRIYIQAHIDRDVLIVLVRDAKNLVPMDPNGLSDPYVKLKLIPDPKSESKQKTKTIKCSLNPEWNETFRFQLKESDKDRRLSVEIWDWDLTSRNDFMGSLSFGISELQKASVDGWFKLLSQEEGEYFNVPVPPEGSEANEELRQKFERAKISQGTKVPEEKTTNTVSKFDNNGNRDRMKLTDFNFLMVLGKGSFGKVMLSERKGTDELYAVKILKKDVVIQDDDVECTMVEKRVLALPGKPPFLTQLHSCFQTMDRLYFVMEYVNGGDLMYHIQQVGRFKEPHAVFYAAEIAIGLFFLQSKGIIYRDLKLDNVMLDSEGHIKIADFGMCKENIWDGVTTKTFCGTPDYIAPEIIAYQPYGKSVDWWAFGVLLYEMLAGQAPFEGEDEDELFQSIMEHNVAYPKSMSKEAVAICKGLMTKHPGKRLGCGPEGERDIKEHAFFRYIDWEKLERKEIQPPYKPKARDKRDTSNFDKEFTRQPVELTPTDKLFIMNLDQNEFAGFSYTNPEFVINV
Tyrosine-protein kinase ZAP-70, sequence (P43403 whole entry): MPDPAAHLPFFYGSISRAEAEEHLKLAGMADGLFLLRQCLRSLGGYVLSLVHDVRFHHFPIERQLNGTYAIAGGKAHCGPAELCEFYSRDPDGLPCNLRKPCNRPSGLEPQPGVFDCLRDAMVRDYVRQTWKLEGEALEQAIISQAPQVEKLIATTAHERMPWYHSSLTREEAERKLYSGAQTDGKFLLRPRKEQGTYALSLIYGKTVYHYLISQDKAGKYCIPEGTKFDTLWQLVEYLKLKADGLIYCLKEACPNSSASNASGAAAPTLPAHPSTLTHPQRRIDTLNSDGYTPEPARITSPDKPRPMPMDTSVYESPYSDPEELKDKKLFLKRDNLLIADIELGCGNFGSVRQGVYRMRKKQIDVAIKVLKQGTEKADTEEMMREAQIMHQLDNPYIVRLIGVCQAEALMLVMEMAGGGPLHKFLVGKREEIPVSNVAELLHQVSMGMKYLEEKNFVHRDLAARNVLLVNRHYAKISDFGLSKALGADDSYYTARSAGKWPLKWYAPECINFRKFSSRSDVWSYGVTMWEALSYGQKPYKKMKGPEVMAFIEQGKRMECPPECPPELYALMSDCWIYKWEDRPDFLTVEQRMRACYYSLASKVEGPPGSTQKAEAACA
Cyclin-dependent kinase 4/cyclin D1, sequence (P11802 whole entry): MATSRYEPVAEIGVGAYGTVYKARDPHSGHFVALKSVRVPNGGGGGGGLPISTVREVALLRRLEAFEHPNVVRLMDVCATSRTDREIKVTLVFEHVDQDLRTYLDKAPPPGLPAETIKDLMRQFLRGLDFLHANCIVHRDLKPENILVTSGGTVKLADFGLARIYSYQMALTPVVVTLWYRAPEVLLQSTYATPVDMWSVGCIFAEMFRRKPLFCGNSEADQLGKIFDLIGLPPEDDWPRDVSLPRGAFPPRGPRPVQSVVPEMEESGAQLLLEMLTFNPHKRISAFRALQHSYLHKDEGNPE
Cyclin-dependent kinase 4/cyclin D1, sequence (P24385 whole entry, further chain): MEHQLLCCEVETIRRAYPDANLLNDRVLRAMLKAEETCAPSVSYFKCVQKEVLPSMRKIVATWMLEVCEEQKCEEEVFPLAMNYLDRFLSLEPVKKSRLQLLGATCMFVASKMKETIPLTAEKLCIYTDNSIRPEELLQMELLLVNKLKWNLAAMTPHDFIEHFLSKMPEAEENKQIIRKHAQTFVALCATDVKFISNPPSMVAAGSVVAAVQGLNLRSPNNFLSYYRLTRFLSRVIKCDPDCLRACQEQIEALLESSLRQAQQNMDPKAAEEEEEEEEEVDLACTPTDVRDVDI
Eukaryotic elongation factor 2 kinase, sequence (O00418 whole entry): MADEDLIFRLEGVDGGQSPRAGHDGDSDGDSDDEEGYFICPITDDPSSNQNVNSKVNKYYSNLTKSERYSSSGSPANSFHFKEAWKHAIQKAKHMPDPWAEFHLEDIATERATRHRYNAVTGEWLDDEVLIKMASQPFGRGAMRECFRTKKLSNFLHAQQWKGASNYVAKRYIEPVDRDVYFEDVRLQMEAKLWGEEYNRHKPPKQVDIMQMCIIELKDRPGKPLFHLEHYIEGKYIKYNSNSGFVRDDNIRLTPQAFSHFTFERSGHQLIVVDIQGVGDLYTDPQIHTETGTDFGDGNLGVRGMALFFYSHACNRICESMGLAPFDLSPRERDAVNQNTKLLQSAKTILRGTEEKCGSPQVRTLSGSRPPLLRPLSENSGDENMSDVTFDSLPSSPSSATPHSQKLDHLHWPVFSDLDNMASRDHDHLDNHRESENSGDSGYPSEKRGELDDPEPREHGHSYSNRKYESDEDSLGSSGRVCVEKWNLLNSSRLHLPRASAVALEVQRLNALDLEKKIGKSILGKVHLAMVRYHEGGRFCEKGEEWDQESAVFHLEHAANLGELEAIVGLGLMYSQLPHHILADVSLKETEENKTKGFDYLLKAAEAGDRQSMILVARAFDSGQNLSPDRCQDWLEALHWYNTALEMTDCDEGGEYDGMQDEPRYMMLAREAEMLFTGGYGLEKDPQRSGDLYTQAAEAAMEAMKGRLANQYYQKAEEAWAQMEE

## CCc1cccc(CC)c1NC(=O)c1nn(C)c2c1CCc1cnc(Nc3ccc(C(=O)NC4CCN(C)CC4)cc3OC(F)(F)F)nc1-2
[1]
  IC50: 1930 nM
[2]
  IC50: > 10000 nM
[3]
  IC50: < 10000 nM
[4]
  IC50: 1200 nM
[5]
  IC50: 796 nM
[6]
  IC50: 1210 nM
[7]
  AUC at 24 h: 50.7 µM·h
[8]
  T1/2: 9.76 min
[9]
  IC50: > 10000 nM
[10]
  IC50: > 10000 nM
[11]
  IC50: 8300 nM
[12]
  IC50: 2040 nM
[13]
  IC50: 1370 nM
[14]
  IC50: 1960 nM
[15]
  IC50: 1040 nM
[16]
  Cmax: 600 nM
[17]
  IC50: > 10000 nM
[18]
  IC50: > 10000 nM
[19]
  IC50: > 10000 nM
[20]
  Activity: 100%
[21]
  IC50: 1490 nM
[22]
  IC50: 2880 nM
[23]
  Activity: Active
[24]
  AUC at 24 h: 8.66 µM·h
[25]
  IC50: 1870 nM
[26]
  Activity: Active
[27]
  IC50: 469 nM
[28]
  IC50: 2860 nM
[29]
  IC50: > 10000 nM
[30]
  Vd: 5.45 L/kg
[31]
  IC50: 2640 nM
[32]
  Activity: Active
[33]
  IC50: > 10000 nM
[34]
  AUC at 24 h: 22.4 µM·h
[35]
  IC50: 232 nM
[36]
  IC50: > 10000 nM
[37]
  IC50: 472 nM
[38]
  IC50: 5490 nM
[39]
  IC50: 10000 nM
[40]
  inhibition: Active
[41]
  Activity: Non-Toxic
[42]
  IC50: 1430 nM
